Measured values published in patent US20240238211A1, “ISOQUINOLINE-STABILIZED LIPID NANOPARTICLE FORMULATIONS” (ModernaTX, Inc., priority 2021, published 2024).

What was measured:
mRNA [1] = assay: mRNA LNP stability as a function of pH and temperature (main peak purity); format: physicochemical; conditions: 1 mM excipient, pH 5.5 to 7.4, 0.8 mg/mL, 1 week at 40° C. or 2 weeks at 25° C.
Procedure: The stability of mRNA LNP formulations was evaluated as a function of pH and temperature in the presence and absence of berberine and palmatine. 1 mM excipients were added in pH conditions 5.5 to 7.4 to evaluate pH impact on mRNA stabilization in mRNA LNPs. For pH between 5.5-6.5, 7 mM citrate and 8% sucrose buffer was used. For pH of 7.4, tris/sucrose buffer was used. The LNP formulations were incubated at 0.8 mg/mL for 1 week at 40° C. or 2 weeks at 25° C., and then main peak purity was measured. Incubation for 1 week at 40° C. or 2 weeks at 25° C. show similar trends. […] See, FIG. 7.

mRNA [2] = assay: HPLC purity of mRNA stressed at 40° C. for 3 weeks; format: physicochemical; conditions: ~1 mM berberine
Procedure: HPLC analyses were performed to evaluate the purity of mRNA stressed at elevated temperature (40° C.) for 3 weeks. In the absence of stabilizer, less than 5% of the mRNA (main peak 5.857 min) remained intact. By contrast, in the presence of ˜1 mM berberine, over 22% of the mRNA (main peak 5.857 min) remained intact. […] See, FIG. 5.

mRNA [3] = assay: mRNA stabilization: main peak purity by RP-HPLC (Example 1); format: physicochemical; conditions: LNP mRNA 0.2 mg/mL in buffer, T0, 3-day, 7-day (berberine, palmatine); buffered mRNA, 5 days at 50° C. (coralyne, palmatine)
Source text: mRNA purity can be determined by reverse phase high-performance liquid chromatography (RP-HPLC) size based separation. This method can be used to assess mRNA integrity by a length-based gradient RP separation and UV detection of RNA at 260 nm. As used herein “main peak” or “main peak purity” refers to the RP-HPLC signal detected from mRNA that corresponds to the full size mRNA molecule loaded within a given LNP formulation. mRNA purity can also be assessed by fragmentation analysis. Fragmentation analysis (FA) is a method by which nucleic acid (e.g., mRNA) fragments can be analyzed by capillary electrophoresis. Fragmentation analysis involves sizing and quantifying nucleic acids (e.g., mRNA), for example by using an intercalating dye coupled with an LED light source. Such analysis may be completed, for example, with a Fragment Analyzer from Advanced Analytical Technologies, Inc. Berberine USP was combined with an LNP containing mRNA (0.2 mg/ml in buffer) in amounts corresponding to the concentrations reported in FIG. 2. Main peak purity was measured by RP-HPLC at T0, 3-day, and 7-day. See, FIG. 2. Palmatine USP was combined with an LNP containing mRNA (0.2 mg/mL in buffer) in amounts corresponding to the concentrations reported in FIG. 3. Main peak purity was measured by RP-HPLC at T0, 3-day, and 7-day. […] After storage for 5 days at 50° C., main peak purity was measured by RP-HPLC. […]

mRNA [4] = assay: mRNA LNP stability at pH 7.4 as a function of berberine concentration (main peak purity); format: physicochemical; conditions: 0-1.5 mM berberine, pH 7.4 tris/sucrose, ~0.2 mg/mL, 1 week at 40° C. or 2 weeks at 25° C.
Procedure: The stability of mRNA LNP formulations at pH of 7.4 was then further evaluated as a function of berberine concentration. A series of mRNA LNPs were formulated with various levels of berberine (0, 0.2, 0.4, 0.6, 0.8, 1.0, 1.25, 1.5 mM) and stressed in 7.4 pH tris/sucrose buffer at ˜0.2 mg/mL for either 1 week at 40° C. or 2 weeks at 25° C., and then main peak purity was measured. […] In this study, maximal effect occurs in the 1-1.25 mM berberine range. See, FIG. 8.

mRNA LNPs = assay: Dynamic light scattering of mRNA LNPs after 40° C. stress; format: physicochemical; conditions: 1 mM berberine, 40° C. stress for 1 week
Source text: Particle size (e.g., particle diameter) can be determined by Dynamic Light Scattering (DLS). DLS measures a hydrodynamic diameter. Smaller particles diffuse more quickly, leading to faster fluctuations in the scattering intensity and shorter decay times for the autocorrelation function. Larger particles diffuse more slowly, leading to slower fluctuations in the scattering intensity and longer decay times in the autocorrelation function. Dynamic light scattering is sensitive to perturbation to the physical integrity of mRNA LNPs. mRNA LNPs were formulated with 1 mM berberine or without berberine and then exposed to 40° C. temperature stress for 1 week. As a control, mRNA LNPs were formulated without berberine. The size distribution of the mRNA LNPs was then analyzed by dynamic light scattering. […] See, FIG. 6.

[5] = system: lipid nanoparticles encapsulating mRNA; assay: Permeation of palmatine chloride into lipid nanoparticles encapsulating mRNA; format: physicochemical; conditions: 2 mM palmatine, 1 to 14 days, 5, 15, 25 or 40° C., 20 mM Tris, 8% sucrose
Procedure: Formulations contain 0.20 mg/ml mRNA DP with 2 mM palmatine chloride. With reference to FIG. 11, studies were performed to determine the effect of time and temperature on diffusion (permeation) of palmatine chloride into lipid nanoparticles encapsulating mRNA. The samples were prepared in 20 mM Tris, 8% sucrose. The lipid nanoparticles encapsulating mRNA were incubated in 2 mM palmatine for 1 to 14 days. Free palmatine was separated from the lipid nanoparticles by gel filtration on 40 kD Zeba cartridges, whereas the concentration of lipid nanoparticle-permeated palmatine was determined by reverse phase chromatography using a Luna C18 column.

mRNA [6] = assay: Long-term stability of mRNA with 2 mM palmatine chloride (intact mRNA by chromatography); format: physicochemical; conditions: for degradation rate (% per month) / greater purity than unstabilized composition: 0.20 mg/ml mRNA + 2 mM palmatine chloride
Procedure: The degradation rate (% per month) of the stabilized composition was 1.8% as compared to […] for the unstabilized composition. […] The degradation rate (% per month) of the stabilized composition was 8.6% as compared to 38% for the unstabilized composition. […] With reference to FIGS. 10A and 10B, studies were performed to determine the long-term effect of palmatine chloride on thermal stability of mRNA. Aliquots of mRNA solution were mixed with 2 mM palmatine chloride and were incubated for the indicated periods of time at 5° C. (FIG. 10A) and 25° C. (FIG. 10B). The percentage of remaining intact mRNA was quantified using chromatography. The dashed line traces represent mRNA-only samples. The solid line traces represent mRNA samples containing palmatine chloride.

mRNA [7] = assay: Stability of mRNA LNPs with DTPA and palmatine chloride (main peak purity); format: physicochemical; conditions: 0.20 mg/ml mRNA LNP, 1 mM DTPA, palmatine chloride 0.5, 1 or 2 mM, up to 5 months
Procedure: With reference to FIG. 12, studies were performed to determine the stability of lipid nanoparticles encapsulating mRNA containing the chelator DTPA and varying concentrations of palmatine chloride. 0.20 mg/ml samples of lipid nanoparticles encapsulating mRNA and 1 mM DTPA were incubated with palmatine chloride (0 mM, 0.5 mM, 1 mM, or 2 mM). Measurements of main peak (mRNA) purity were taken at time points up to 5 months.

[8] = Immunogenicity of mRNA LNP stability samples in vivo (serum antibody titers); parameters: species or system BALB/c mice; conditions: three month, 25° C. stability samples of mRNA LNPs containing palmatine, mice
Procedure: Experiments were performed to (i) evaluate immunogenicity of mRNA LNPs containing palmatine or berberine at varying concentrations as compared to non-stabilized control mRNA LNPs. BALB/c mice (N=210) are injected with a mRNA LNP stabilized with varying concentrations of palmatine or berberine (e.g., 0, 0.5 mM, 0.75 mM, 1 mM, 2 mM, 5 mM, or 10 mM). Various dose levels (e.g., 2.5 ug/mg; 1.25 ug/mg; or 0.63 ug/mg) are injected into mice intramuscularly on day 1. On day 21, immunogenicity is assessed via serum antibody titers against protein encoded by the mRNA. The mice are given a booster injection on day 22, and then immunogenicity is again assessed on day 36. Three month, 25° C. stability samples from mRNA LNPs containing palmatine at varying concentrations, and non-stabilized mRNA LNPs (no palmatine) were tested in vivo as continued immunogenicity monitoring on stability. […] The drop in antibody titers is correlated to a significant drop in mRNA purity.

mRNA [9] = assay: mRNA purity of three month, 25° C. stability samples of mRNA LNPs; format: physicochemical; conditions: mRNA LNPs containing palmatine at varying concentrations, 3 months at 25° C.
mRNA [10] = assay: Differential scanning microcalorimetry of mRNA with palmatine chloride; format: physicochemical; conditions: increasing palmatine chloride up to 500 μM, 20 mM Tris, 8% sucrose
Procedure: With reference to FIG. 9, differential scanning microcalorimetry thermograms were obtained of lipid nanoparticles encapsulating mRNA and containing increasing concentrations of palmatine chloride (left-most trace—free mRNA, right-most trace—500 μM palmatine). The experiments were performed in 20 mM Tris, 8% sucrose buffer.

stabilizing effect across pH range (main peak purity) (mRNA [1])	mRNA remaining intact (main peak) (mRNA [2])	effect on mRNA (main peak purity by RP-HPLC) (mRNA [3])	dependence of stabilizing effect on concentration (mRNA [4])	rate of permeation into lipid nanoparticles as a function of temperature [5]	degradation rate (% per month) (mRNA [6]; 5° C. over twelve months)	greater purity than unstabilized composition (mRNA [6]; 5° C., after ten months) [%]	degradation rate (% per month) (mRNA [6]; 25° C. over six months)	greater purity than unstabilized composition (mRNA [6]; 25° C., after six months) [%]	mRNA thermal stability in the presence of the compound (mRNA [6]; 2 mM palmatine chloride, 5° C. and 25° C.)	mRNA stability (main peak purity) (mRNA [7])	effect of binding on thermal stability of mRNA (DSC thermograms) (mRNA [10])	Compound	effect on hydrodynamic characteristics of the lipid nanoparticle (size distribution) (mRNA LNPs)	permeated concentration in lipid nanoparticles as a function of temperature [5]	antibody titers versus −70° C. non-stabilized control [8]	mRNA purity versus non-stabilized samples (mRNA [9])
strong stabilizing effects	over 22%	stabilizing effect	concentration-dependent manner	–	–	–	–	–	–	–	–	COc1ccc2cc3[n+](cc2c1OC)CCc1cc2c(cc1-3)OCO2 [berberine]	no effect on the hydrodynamic characteristics of the lipid nanoparticle	–	–	–
strong stabilizing effects	–	stabilizing effect	–	increased rate of permeation	1.8	20	8.6	35	significantly improved	significantly improved	increased thermal stability of mRNA	COc1cc2c(cc1OC)-c1cc3ccc(OC)c(OC)c3c[n+]1CC2 [palmatine]	–	increased permeated palmatine concentration	more similar antibody titers to the −70 °C control arm	higher mRNA purity than the non-stabilized
